Legend:
[1] = target: T1, PTPN2 enzyme (Homo sapiens, UniProt P17706); assay: PhosphoSens PTPN2 biochemical assay; conditions: substrate AQT0264 20 μM, room temperature; read-out: PTPN2 BCHEM IC50
T1 sequence (P17706 1-415): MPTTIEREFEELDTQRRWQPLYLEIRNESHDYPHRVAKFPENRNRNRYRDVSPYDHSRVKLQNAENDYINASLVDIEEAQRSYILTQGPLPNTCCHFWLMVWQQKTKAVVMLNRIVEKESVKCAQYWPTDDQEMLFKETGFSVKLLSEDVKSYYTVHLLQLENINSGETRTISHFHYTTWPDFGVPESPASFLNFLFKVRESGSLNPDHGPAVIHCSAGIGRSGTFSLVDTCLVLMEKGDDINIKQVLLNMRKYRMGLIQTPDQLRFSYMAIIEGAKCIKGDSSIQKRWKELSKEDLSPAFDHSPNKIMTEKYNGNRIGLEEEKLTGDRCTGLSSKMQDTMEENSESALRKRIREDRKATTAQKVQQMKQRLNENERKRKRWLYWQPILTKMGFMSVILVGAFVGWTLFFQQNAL
Summary of the method: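 PhosphoSens fluorescence format with 20 μM final AQT0264 substrate and […] in 50 mM HEPES pH 7.5, 500 μM EGTA, […], 0.01% Brij-35, 1% glycerol, 1 mM DTT, 0.2 mg/mL BSA. Compounds in 3-fold dilution series; progress curves read (ex 360/em 480 nm) every 71 s for 1 h at room temperature.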

[2] = test system: phosphorylated STAT1 protein levels in B16-F10 cells; assay: Phospho-STAT1 (Tyr701) HTRF assay in IFN-gamma treated B16-F10 cells; format: cell-based; conditions: mouse IFN-gamma 100 ng/mL, 1 hour, read-out: pSTAT1 HTRF B16 EC50
Summary of the method: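 Mouse B16-F10 cells, 10,000/well, pretreated 1 h with compound (0.15% DMSO), then stimulated with mouse IFN-gamma at 100 ng/mL final for 1 h at 37 C. Phospho-STAT1 (Tyr701) measured by HTRF.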

[3] = test system: B16-F10 cells; assay: Cell proliferation assay (CellTiter-Glo) in IFN-gamma treated B16-F10 cells; format: cell-based; conditions: 120 h, mouse IFN-gamma 10 ng/mL, read-out: PTPN2 Prolif 5d B16F10 EC50

Structure (SMILES)	IC50 [1] [nM]	EC50 [2] [nM]	EC50 [3] [nM]
O=C1CN(c2c(O)cc(CNc3cc(F)ccc3Cl)cc2F)S(=O)(=O)N1 [EXAMPLE 80, 5-[4-[(2-chloro-5-fluoro-anilino)methyl]-2-fluoro-6-hydroxy-phenyl]-1,1-dioxo-1,2,5-thiadiazolidin-3-one]	50	≥ 15000	≥ 15000
O=C1CN(c2c(O)cc(CN[C@@H]3CCCOC3)cc2F)S(=O)(=O)N1 [EXAMPLE 64, (R)-5-(2-fluoro-6-hydroxy-4-(((tetrahydro-2H-pyran-3-yl)amino)methyl)phenyl)-1,2,5-thiadiazolidin-3-one 1,1-dioxide]	139	2180	2720
NC1CCN(c2cc(O)c(N3CC(=O)NS3(=O)=O)c(F)c2)CC1 [EXAMPLE 84, 5-(4-(4-aminopiperidin-1-yl)-2-fluoro-6-hydroxyphenyl)-1,2,5-thiadiazolidin-3-one 1,1-dioxide]	745	≥ 15000	≥ 15000
O=C1CN(c2c(O)cc(-c3ccc(CN4CCCC4)cc3)cc2F)S(=O)(=O)N1 [EXAMPLE 19, 5-[2-fluoro-6-hydroxy-4-[4-(pyrrolidin-1-ylmethyl)phenyl]phenyl]-1,1-dioxo-1,2,5-thiadiazolidin-3-one]	483	≥ 15000	≥ 15000
O=C1CN(c2c(O)cc(CN3CCC(F)CC3)cc2F)S(=O)(=O)N1 [EXAMPLE 42, 5-(2-fluoro-4-((4-fluoropiperidin-1-yl)methyl)-6-hydroxyphenyl)-1,2,5-thiadiazolidin-3-one 1,1-dioxide]	60	2570	4720
CC(=O)N1CCC[C@H](NCc2cc(O)c(N3CC(=O)NS3(=O)=O)c(F)c2)C1 [EXAMPLE 71, 5-[4-[[[(3S)-1-acetyl-3-piperidyl]amino]methyl]-2-fluoro-6-hydroxy-phenyl]-1,1-dioxo-1,2,5-thiadiazolidin-3-one]	25	2910	1890
CN1CCC(c2cc(O)c(N3CC(=O)NS3(=O)=O)c(F)c2)CC1 [EXAMPLE 4, 5-[2-fluoro-6-hydroxy-4-(1-methyl-4-piperidyl)phenyl]-1,1-dioxo-1,2,5-thiadiazolidin-3-one]	807	≥ 15000	≥ 15000
CC1(C)CCC[C@@H](NCc2cc(O)c(N3CC(=O)NS3(=O)=O)c(F)c2)C1 [EXAMPLE 51, 5-[4-[[[(1R)-3,3-dimethylcyclohexyl]amino]methyl]-2-fluoro-6-hydroxy-phenyl]-1,1-dioxo-1,2,5-thiadiazolidin-3-one]	35	1150	656
CN(C)C1CCN(c2cc(O)c(N3CC(=O)NS3(=O)=O)c(F)c2)CC1 [EXAMPLE 87, 5-(4-(4-(dimethylamino)piperidin-1-yl)-2-fluoro-6-hydroxyphenyl)-1,2,5-thiadiazolidin-3-one 1,1-dioxide]	318	≥ 15000	≥ 15000
O=C1CN(c2c(O)cc(-c3cccc(N4CCOCC4)c3)cc2F)S(=O)(=O)N1 [EXAMPLE 16, 5-[2-fluoro-6-hydroxy-4-(3-morpholinophenyl)phenyl]-1,1-dioxo-1,2,5-thiadiazolidin-3-one]	423	≥ 15000	≥ 15000
CN1CCC(c2ccc(O)c(N3CC(=O)NS3(=O)=O)c2F)CC1 [EXAMPLE 106, 5-(2-fluoro-6-hydroxy-3-(1-methylpiperidin-4-yl)phenyl)-1,2,5-thiadiazolidin-3-one 1,1-dioxide]	4470	≥ 15000	≥ 15000
CNC(=O)CN1CCN(Cc2cc(O)c(N3CC(=O)NS3(=O)=O)c(F)c2)CC1 [EXAMPLE 59, 2-(4-(4-(1,1-dioxido-4-oxo-1,2,5-thiadiazolidin-2-yl)-3-fluoro-5-hydroxybenzyl)piperazin-1-yl)-N-methylacetamide]	477	≥ 15000	≥ 15000

From US12162848B2, “Inhibitors of protein tyrosine phosphatase, compositions, and methods of use” (BRISTOL-MYERS SQUIBB COMPANY, priority 2022, dated 2024)
